What was measured:
Test in all cases: KiNativ profiling in H3255 cells
Type in all cases: cell-based, human
[1] = tested on: T1, MSK2 domain1; conditions: 2.5 µM
T1 construct: MSK2 domain1; purchased ActivX Biosciences (KiNativ)
Experimental: (§1) H3255 cells were plated with 6.5x10^6 per condition in fresh media in 15 cm plates and treated the 80% confluency for 2 hours with DMSO or 2.5 μM of ZNL-0056. To harvest cells, plates were washed 3 times with cold PBS, then collected by scraping into 4 mL of cold PBS containing protease and phosphatase inhibitors. Cells were pelleted by centrifugation at 1350 g at 4 ℃ for 5 minutes and immediately frozen in liquid nitrogen. The frozen samples were sent to ActivX Biosciences (La Jolla, CA) for the remainder of the KiNativ profiling experiment4. […]

[2] = tested on: T2, MLK3; conditions: 2.5 µM; Lys2; DLKSNNILLLQPIESDDMEHK
T2 construct: purchased ActivX Biosciences (KiNativ)
Experimental: as §1

[3] = tested on: T3, MAP3K1; conditions: 2.5 µM; Lys2; DVKGANLLIDSTGQR
T3 construct: purchased ActivX Biosciences (KiNativ)
Experimental: as §1

[4] = tested on: T4, CK1g1; conditions: 2.5 µM; Lys2; DVKPENFLIGR
T4 construct: purchased ActivX Biosciences (KiNativ)
Experimental: as §1

[5] = tested on: T5, p38b; conditions: 2.5 µM; Other; QELNKTVWEVPQR
T5 construct: purchased ActivX Biosciences (KiNativ)
Experimental: as §1

[6] = tested on: T6, CRK7; conditions: 2.5 µM; Lys2; DIKCSNILLNNSGQIK
T6 construct: purchased ActivX Biosciences (KiNativ)
Experimental: as §1

[7] = tested on: CK1d, CK1e; conditions: 2.5 µM; Lys2; DVKPDNFLMGLGKK
Experimental: as §1

[8] = tested on: T7, LATS2; conditions: 2.5 µM
T7 construct: purchased ActivX Biosciences (KiNativ)
Experimental: as §1

[9] = tested on: T8, FER; conditions: 2.5 µM
T8 construct: purchased ActivX Biosciences (KiNativ)
Experimental: as §1

[10] = tested on: T9, CaMK1d; conditions: 2.5 µM
T9 construct: purchased ActivX Biosciences (KiNativ)
Experimental: as §1

[11] = tested on: T10, PKCi; conditions: 2.5 µM
T10 construct: purchased ActivX Biosciences (KiNativ)
Experimental: as §1

[12] = tested on: T11, Erk1; conditions: 2.5 µM; Lys2; DLKPSNLLINTTCDLK
T11 construct: purchased ActivX Biosciences (KiNativ)
Experimental: as §1

[13] = tested on: T12, GCN2 domain2; conditions: 2.5 µM
T12 construct: GCN2 domain2; purchased ActivX Biosciences (KiNativ)
Experimental: as §1

[14] = tested on: T13, BRAF, BRAF V600E; conditions: 2.5 µM; Lys2; DLKSNNIFLHEDLTVK
T13 construct: purchased ActivX Biosciences (KiNativ)
Experimental: as §1

[15] = tested on: T14, EphA2; conditions: 2.5 µM; Activation Loop; VLEDDPEATYTTSGGKIPIR
T14 construct: purchased ActivX Biosciences (KiNativ)
Experimental: as §1

[16] = tested on: RSK1 domain1, RSK2 domain1, RSK3 domain1; conditions: 2.5 µM; Lys2; DLKPENILLDEEGHIK
Experimental: as §1

[17] = tested on: T15, SRPK2; conditions: 2.5 µM; Lys2; IIHTDIKPENILMCVDDAYVR
T15 construct: purchased ActivX Biosciences (KiNativ)
Experimental: as §1

[18] = tested on: T16, TAK1; conditions: 2.5 µM; Lys2; DLKPPNLLLVAGGTVLK
T16 construct: purchased ActivX Biosciences (KiNativ)
Experimental: as §1

[19] = tested on: T17, CSK; conditions: 2.5 µM
T17 construct: purchased ActivX Biosciences (KiNativ)
Experimental: as §1

[20] = tested on: PI4KA, PI4KAP2; conditions: 2.5 µM; ATP; SGTPMQSAAKAPYLAK
Experimental: as §1

[21] = tested on: T18, FRAP; conditions: 2.5 µM; ATP; IQSIAPSLQVITSKQRPR
T18 construct: purchased ActivX Biosciences (KiNativ)
Experimental: as §1

[22] = tested on: MER, TYRO3; conditions: 2.5 µM; Activation Loop; KIYSGDYYR
Experimental: as §1

[23] = tested on: T19, NEK4; conditions: 2.5 µM; Lys2; DLKTQNVFLTR
T19 construct: purchased ActivX Biosciences (KiNativ)
Experimental: as §1

[24] = tested on: T20, TLK1; conditions: 2.5 µM
T20 construct: purchased ActivX Biosciences (KiNativ)
Experimental: as §1

[25] = tested on: T21, RSK3 domain1; conditions: 2.5 µM; Lys2; DLKPENILLDEEGHIKITDFGLSK
T21 construct: RSK3 domain1; purchased ActivX Biosciences (KiNativ)
Experimental: as §1

[26] = tested on: T22, TBK1; conditions: 2.5 µM; Lys1; TGDLFAIKVFNNISFLRPVDVQMR
T22 construct: purchased ActivX Biosciences (KiNativ)
Experimental: as §1

[27] = tested on: T23, ACK; conditions: 2.5 µM
T23 construct: purchased ActivX Biosciences (KiNativ)
Experimental: as §1

[28] = tested on: T24, ATM; conditions: 2.5 µM; ATP; QLVKGRDDLRQDAVMQQVFQMCNTLLQR
T24 construct: purchased ActivX Biosciences (KiNativ)
Experimental: as §1

[29] = tested on: T25, ZAK; conditions: 2.5 µM; Lys1; WISQDKEVAVKK
T25 construct: purchased ActivX Biosciences (KiNativ)
Experimental: as §1

[30] = tested on: MARK2, MARK3; conditions: 2.5 µM; Lys2; DLKAENLLLDADMNIK
Experimental: as §1

[31] = tested on: BRAF, RAF1; conditions: 2.5 µM; Activation Loop; IGDFGLATVKSR
Experimental: as §1

[32] = Activation Loop, QEDGGVYSSSGLKQIPIK
[33] = Activation Loop, VSDFGLTKEASSTQDTGKLPVK
[34] = Lys1, VAVKCIKNDATAQAFLAEASVMTQLR
[35] = Lys2, YLNEIKPPIIHYDLKPGNILLVDGTACGEIK
[36] = Lys1, TVSVAVKCLKPDVLSQPEAMDDFIR

## C=CC(=O)Nc1cc(C(=O)Nc2nc3cccc(C)c3n2[C@@H]2CCCCN(C(=O)C=C)C2)cs1 [ZNL-0056]
[1]; Lys1, LYAMKVLR
  Inhibition: -2.6%
[1]; Lys2, DLKLENVLLDSEGHIVLTDFGLSK
  Inhibition: 18.7%
[2]
  Inhibition: 26.8%
[3]
  Inhibition: -17.1%
[4]
  Inhibition: 16.6%
[5]
  Inhibition: -8.8%
[6]
  Inhibition: -9.2%
[7]
  Inhibition: 10.8%
[8]; Lys1, VDTHALYAMKTLR
  Inhibition: 15.4%
[8]; Lys2, DIKPDNILIDLDGHIK
  Inhibition: 23.5%
[9]; [32]
  Inhibition: -11.1%
[9]; Lys1, TSVAVKTCKEDLPQELK
  Inhibition: -6.4%
[10]; Lys1, LFAVKCIPK
  Inhibition: 11.3%
[10]; Lys2, DLKPENLLYYSQDEESK
  Inhibition: 2.0%
[11]; Lys1, IYAMKVVK
  Inhibition: 2.3%
[11]; Lys2, DLKLDNVLLDSEGHIK
  Inhibition: 15.4%
[12]
  Inhibition: -17.6%
[13]; Lys1, LDGCCYAVKR
  Inhibition: 0.0617%
[13]; Lys2, DLKPVNIFLDSDDHVK
  Inhibition: 5.5%
[14]
  Inhibition: 4.5%
[15]
  Inhibition: 13.2%
[16]
  Inhibition: -1.0%
[17]
  Inhibition: 10.0%
[18]
  Inhibition: 10.2%
[19]; [33]
  Inhibition: -1.9%
[19]; Lys1, VAVKCIK
  Inhibition: -0.8%
[19]; [34]
  Inhibition: 6.7%
[20]
  Inhibition: -23.5%
[21]
  Inhibition: -27.2%
[22]
  Inhibition: 2.6%
[23]
  Inhibition: 7.6%
[24]; Lys1, YAAVKIHQLNK
  Inhibition: 31.3%
[24]; [35]
  Inhibition: 13.1%
[25]
  Inhibition: 5.4%
[26]
  Inhibition: 5.3%
[27]; Activation Loop, KVPFAWCAPESLK
  Inhibition: -21.4%
[27]; [36]
  Inhibition: -6.2%
[28]
  Inhibition: -1.9%
[29]
  Inhibition: 12.1%
[30]
  Inhibition: 9.0%
[31]
  Inhibition: -19.4%

## C=CC(=O)Nc1cc(Nc2nccc(-c3cn(C)c4ccccc34)n2)c(OC)cc1N(C)CCN(C)C [Osimertinib, osimertinib, reference compound]
[1]; Lys1, LYAMKVLR
  Inhibition: -36.1%
[1]; Lys2, DLKLENVLLDSEGHIVLTDFGLSK
  Inhibition: 5.0%
[2]
  Inhibition: -1.5%
[3]
  Inhibition: 8.4%
[4]
  Inhibition: 7.6%
[5]
  Inhibition: 7.2%
[6]
  Inhibition: 31.9%
[7]
  Inhibition: 6.2%
[8]; Lys1, VDTHALYAMKTLR
  Inhibition: -12.9%
[8]; Lys2, DIKPDNILIDLDGHIK
  Inhibition: -15.6%
[9]; [32]
  Inhibition: 28.7%
[9]; Lys1, TSVAVKTCKEDLPQELK
  Inhibition: -15.4%
[10]; Lys1, LFAVKCIPK
  Inhibition: -14.3%
[10]; Lys2, DLKPENLLYYSQDEESK
  Inhibition: -8.2%
[11]; Lys1, IYAMKVVK
  Inhibition: 5.6%
[11]; Lys2, DLKLDNVLLDSEGHIK
  Inhibition: -27.3%
[12]
  Inhibition: -0.641%
[13]; Lys1, LDGCCYAVKR
  Inhibition: 3.6%
[13]; Lys2, DLKPVNIFLDSDDHVK
  Inhibition: -25.4%
[14]
  Inhibition: -9.2%
[15]
  Inhibition: 18.1%
[16]
  Inhibition: -33.3%
[17]
  Inhibition: -2.3%
[18]
  Inhibition: -9.8%
[19]; [33]
  Inhibition: -3.3%
[19]; Lys1, VAVKCIK
  Inhibition: -17.2%
[19]; [34]
  Inhibition: 16.1%
[20]
  Inhibition: 30.1%
[21]
  Inhibition: -39.1%
[22]
  Inhibition: 33.0%
[23]
  Inhibition: -12.6%
[24]; Lys1, YAAVKIHQLNK
  Inhibition: -53.3%
[24]; [35]
  Inhibition: 7.2%
[25]
  Inhibition: -9.7%
[26]
  Inhibition: -18.1%
[27]; Activation Loop, KVPFAWCAPESLK
  Inhibition: 27.2%
[27]; [36]
  Inhibition: 25.7%
[28]
  Inhibition: 24.6%
[29]
  Inhibition: -16.3%
[30]
  Inhibition: -12.0%
[31]
  Inhibition: -21.1%

— article PMC11212140, “Molecular Bidents with Two Electrophilic Warheads as a New Pharmacological Modality” (ACS Central Science, 2024)
